For one molecule, seizure frequency results are on record in patent EP0637449A1, “Use of L-carnitine or acyl L-carnitines and valproate for treating seizure disorders” (Sigma-Tau Industrie Farmaceutiche Riunite S.p.A., priority 1993, dated 1995).

The experiment has as its system epileptic patients. Put plainly: Clinical trial: seizure frequency in epileptic patients on valproate with added L-carnitine. Type of experiment: in vivo. Conditions: 45 patients treated only with valproate for at least six months, then valproate and L-carnitine for at least one year; compared with the pre-treatment period (valproate only). Pre-carnitine vs greater than 12 months p<0.001; start-6 months vs greater than 12 months p=0.0001; 6-12 months vs greater than 12 months p=0.0001. How it is done: Fortyfive patients, 20 females and 25 males, mean age 24.5±8.48 years, were included in the study.
Some patients had more than one seizure type.
All of the patients had been treated only with valproate for at least six months.
Subsequently, they were treated with both valproate and L-carnitine for at least one year.
At intervals L-carnitine activity was assessed on some parameters including seizure frequency, in comparison with the pre-treatment period (valproate only, no L-carnitine). The intervals selected for all the controls were: between the start to 6 months of L-carnitine therapy, […], and L-carnitine therapy greater than 12 months.
Parameter assessment was not carried out at prefixed dates but within the 0-6, 6-12 and greater than 12 month periods in order to evaluate the seizure frequency over a sufficiently extended time period.

As for `C[N+](C)(C)C[C@H](O)CC(=O)[O-]` [L-carnitine], the seizure frequency entry was “decreased progressively and steadily”.
